In ChEMBL document CHEMBL1201862, “PubChem BioAssay data set” (2004):
Calls of active or inactive are those of the source.

Tests used:
CAAX prenyl protease 2 = target: T1, CAAX prenyl protease 2 (Saccharomyces cerevisiae S288c, UniProt Q03530); type: biochemical
T1 sequence (Q03530 whole entry): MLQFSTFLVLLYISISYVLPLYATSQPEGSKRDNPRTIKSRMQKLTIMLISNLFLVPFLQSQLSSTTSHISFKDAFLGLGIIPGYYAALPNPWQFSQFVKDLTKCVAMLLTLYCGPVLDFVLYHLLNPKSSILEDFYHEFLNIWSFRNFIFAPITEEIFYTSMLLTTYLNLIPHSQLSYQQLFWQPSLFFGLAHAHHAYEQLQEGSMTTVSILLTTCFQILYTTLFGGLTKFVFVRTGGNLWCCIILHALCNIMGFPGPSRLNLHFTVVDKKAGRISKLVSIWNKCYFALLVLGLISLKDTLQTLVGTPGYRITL

[1] = toxicity toward cultured mammalian cells – cell-based, plate reader, cherry-pick samples, cytotoxicity control, dose response (AID 504397); type: functional
SUMO-activating enzyme [2] = target: T2, SUMO-activating enzyme (Homo sapiens, UniProt Q9UBT2); test: blockers of UBC9-mediated SUMO conjugation – biochemical, AlphaScreen, SUMOylation inhibitor project, confirmation (AID 2018); type: functional
[3] = target: T3, Zinc finger protein mex-5 (Caenorhabditis elegans, UniProt Q9XUB2); test: potency of MEX-5 RNA-binding blockers – biochemical, C. elegans, fluorescence polarization, dose response (AID 1960)
T3 sequence (Q9XUB2 whole entry): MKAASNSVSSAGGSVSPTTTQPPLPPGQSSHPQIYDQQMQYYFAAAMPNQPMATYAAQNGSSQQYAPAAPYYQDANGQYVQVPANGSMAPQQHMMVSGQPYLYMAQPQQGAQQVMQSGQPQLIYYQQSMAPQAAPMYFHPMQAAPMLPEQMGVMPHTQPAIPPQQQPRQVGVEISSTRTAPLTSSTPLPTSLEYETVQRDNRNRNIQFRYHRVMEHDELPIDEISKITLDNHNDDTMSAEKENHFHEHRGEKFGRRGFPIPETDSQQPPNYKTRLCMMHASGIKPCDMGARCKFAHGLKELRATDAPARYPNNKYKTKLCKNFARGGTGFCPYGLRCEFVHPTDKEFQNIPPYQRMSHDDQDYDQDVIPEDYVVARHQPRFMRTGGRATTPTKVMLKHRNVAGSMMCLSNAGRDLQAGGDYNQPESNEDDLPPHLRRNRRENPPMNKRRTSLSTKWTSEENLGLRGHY

[4] = target: T4, RNA-binding protein pos-1 (Caenorhabditis elegans, UniProt G5EF15); test: disruptors of C. elegans POS-1 RNA interaction – biochemical, fluorescence polarization, dose response (AID 1964);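 note: purified POS-1 fused to maltose binding protein made in E. coli; potency of compounds blocking POS-1 binding to fluorescent RNA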
T4 sequence (G5EF15 whole entry): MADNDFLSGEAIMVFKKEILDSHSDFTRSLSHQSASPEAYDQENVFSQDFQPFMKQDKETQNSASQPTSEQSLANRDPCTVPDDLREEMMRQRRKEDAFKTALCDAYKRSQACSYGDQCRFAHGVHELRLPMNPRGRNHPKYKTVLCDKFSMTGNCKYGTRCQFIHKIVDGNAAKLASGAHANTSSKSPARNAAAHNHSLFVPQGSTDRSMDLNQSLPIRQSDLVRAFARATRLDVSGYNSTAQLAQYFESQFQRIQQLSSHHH

SUMO-activating enzyme [5] = target: T2, SUMO-activating enzyme; test: blockers of SAE1/SAE2–UBC9 SUMO transfer – biochemical, HTRF, uHTS, primary screen (AID 2006); type: protein-complex assay
[6] = target: Sphingosine 1-phosphate receptor 1 (Homo sapiens, UniProt P21453); test: Fluorescence-based counterscreen assay for S1P4 agonists: Cell-based dose response high throughput screening assay to identify agonists of the Sphingosine 1-Phosphate Receptor 1 (S1P1). [Related pubchem assays (depositor defined):AID1509, AID1523, AID1801, AID463107, AID463118, AID463119, AID463122, AID463123, AID463129, AID463225, AID504400, AID504460]; type: functional
[7] = target: Sphingosine 1-phosphate receptor 2 (Homo sapiens, UniProt O95136); test: Dose Response Cell Based Assay for Agonists of the S1P2 Receptor. [Related pubchem assays: 729, 736, 843 ]; type: functional
[8] = target: Sphingosine 1-phosphate receptor 4 (Homo sapiens, UniProt O95977); test: Fluorescence dose response cell-based high throughput screening assay for agonists of the Sphingosine 1-Phosphate Receptor 4 (S1P4). [Related pubchem assays: 1509 (Primary screen.), 1523 (Confirmation screen in triplicates.)]; type: functional
[9] = MIN6 cell viability loss – mouse insulinoma, cytotoxicity control, dose response (AID 2122); type: functional;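 note: confirmatory high-throughput counterscreen run to flag cytotoxic compounds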
[10] = decrease of insulin promoter-GFP reporter – imaging, high-content screening, mouse beta cells (AID 1628); type: functional; conditions: MIN6
[11] = target: Induced myeloid leukemia cell differentiation protein Mcl-1 (Homo sapiens, UniProt Q07820); type: functional
Exodeoxyribonuclease V = Exodeoxyribonuclease V (Escherichia coli (strain K12), UniProt P04993+P07648+P08394); test: RecBCD inhibition via phage-restricted bacterial growth – absorbance, V66 E. coli, mutant T4 phage, counter-screen for AddAB inhibitor project, dose response (AID 492957); type: functional, cell-based, Escherichia coli str. K-12 substr. MG1655
[12] = Counterscreen for AddAB inhibitors: absorbance-based bacterial cell-based high throughput dose response assay for inhibitors of bacterial viability. [Related pubchem assays (depositor defined):AID435030, AID449728, AID449731, AID488942, AID488955, AID488956]; type: functional
Paired box protein Pax-8 = Paired box protein Pax-8 (Homo sapiens, UniProt Q06710); test: PAX8 transcriptional activity inhibition in RMG-I – RMG-I cells, luciferase, cherry-pick, dose response (AID 687027); type: functional, cell-based;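 note: luciferase reporter driven by Pax8 target thyroperoxidase promoter measured by SteadyGlo luminescence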
Cytochrome P450 2C19 = Cytochrome P450 2C19 (Homo sapiens, UniProt P33261); test: Cytochrome panel assay with activity outcomes. Panel member name: p450-cyp2c19 Compounds with AC50 equal or less than 10 uM are considered active; type: functional; conditions: read-out: AC50
Cytochrome P450 3A4 = Cytochrome P450 3A4 (Homo sapiens, UniProt P08684);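 note: CYP3A4 tested as one member of a cytochrome P450 panel screen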
Cytochrome P450 2C9 = Cytochrome P450 2C9 (Homo sapiens, UniProt P11712)
[13] = target: G-protein coupled receptor 55 (Homo sapiens, UniProt Q9Y2T6); test: blockers of GPR55 signalling, imaged – imaging, image-based, counter-screen for GPR35 antagonist project, SAR follow-up (AID 2397); type: functional
[14] = target: T5, Intestinal-type alkaline phosphatase (Mus musculus, UniProt P24822); test: PubChem AID 488875; type: functional
[15] = target: T6, Alkaline phosphatase, tissue-nonspecific isozyme (Homo sapiens, UniProt P05186); test: activation of tissue-nonspecific alkaline phosphatase – biochemical, TNAP isozyme, human IAP uHTS hits, selectivity assay for human IAP activator project, dose response (AID 488886); type: functional;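 note: potency of compounds raising TNAP activity as a selectivity check on IAP activators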
T6 sequence (P05186 whole entry): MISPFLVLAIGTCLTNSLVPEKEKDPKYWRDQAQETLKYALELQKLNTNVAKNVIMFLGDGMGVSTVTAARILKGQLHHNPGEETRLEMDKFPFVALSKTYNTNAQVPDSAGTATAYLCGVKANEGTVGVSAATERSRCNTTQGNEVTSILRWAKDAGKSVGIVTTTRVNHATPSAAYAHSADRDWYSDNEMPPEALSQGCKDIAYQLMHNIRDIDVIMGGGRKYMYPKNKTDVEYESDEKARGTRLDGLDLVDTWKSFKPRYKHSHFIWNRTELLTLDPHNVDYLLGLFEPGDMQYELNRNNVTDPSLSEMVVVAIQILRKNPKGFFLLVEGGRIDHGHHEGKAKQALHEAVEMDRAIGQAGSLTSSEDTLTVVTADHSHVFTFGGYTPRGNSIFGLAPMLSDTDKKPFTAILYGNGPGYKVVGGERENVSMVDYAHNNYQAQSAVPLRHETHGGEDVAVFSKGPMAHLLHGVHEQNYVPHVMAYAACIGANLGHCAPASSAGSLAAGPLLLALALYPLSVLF

[16] = target: T7, Intestinal-type alkaline phosphatase (Homo sapiens, UniProt P09923); test: human intestinal alkaline phosphatase activators, dose response, biochemical, luminescence, uHTS hits (AID 463120); type: functional
[17] = target: T7, Intestinal-type alkaline phosphatase; test: activation of human intestinal alkaline phosphatase – biochemical, luminescent, uHTS hits, set 2, dose response (AID 488817); type: functional;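 note: potency of activators that raise enzyme activity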
[18] = target: T6, Alkaline phosphatase, tissue-nonspecific isozyme; test: activation of tissue-nonspecific alkaline phosphatase – biochemical, TNAP isozyme, mouse IAP uHTS hits, selectivity assay for mouse IAP activator project, dose response (AID 488880); type: functional
Fibrinogen beta chain [19] = target: T8, Fibrinogen beta chain (Homo sapiens, UniProt P02675); test: Fluorescence polarization-based biochemical high throughput dose response assay to identify inhibitors that disrupt the binding of a cyclic peptide (Tn6) to the fibrin proteolytic product D-Dimer and fragment E complex [DD(E )].
[20] = target: T7, Intestinal-type alkaline phosphatase; test: activation of human intestinal alkaline phosphatase – biochemical, dose response (AID 488873); type: functional
[21] = target: T9, Endoribonuclease toxin MazF (Escherichia coli K-12, UniProt P0AE70); test: substrate-only fluorescence increase artefacts – biochemical, single-stranded RNase substrate, counter-screen for MazEF activator project, dose response (AID 588502); type: functional
T9 sequence (P0AE70 whole entry): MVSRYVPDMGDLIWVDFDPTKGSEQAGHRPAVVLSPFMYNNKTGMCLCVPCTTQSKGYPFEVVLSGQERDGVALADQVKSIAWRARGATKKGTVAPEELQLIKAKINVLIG

Genome polyprotein = Genome polyprotein (dengue virus type 2, UniProt P29990); test: flavivirus cap methylation enzyme inhibition – biochemical, confirmation dose response, primary screen (AID 588689); type: functional
[22] = target: T9, Endoribonuclease toxin MazF; test: activation of MazEF endoribonuclease cleavage – biochemical, fluorescence, single-stranded RNA substrate, uHTS hits, dose response (AID 588481); type: functional
Fibrinogen beta chain [23] = target: T8, Fibrinogen beta chain; test: Fluorescence polarization-based biochemical high throughput dose response assay to identify inhibitors that disrupt the binding of a cyclic peptide (Tn7) to the fibrin proteolytic product D-Dimer and fragment E complex [DD(E )].
[24] = target: Glucose-6-phosphate 1-dehydrogenase (Homo sapiens, UniProt P11413); test: inhibition of Homo sapiens G6PD, dose series – biochemical, fluorescence, selectivity assay for P. falciparum G6PD inhibitor project, dose response (AID 504792); type: functional
Large T antigen = Large T antigen (Simian virus 40, UniProt P03070); type: functional, Betapolyomavirus macacae;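 note: Confirmatory-stage PubChem screen for compounds that inhibit SV40 T antigen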
[25] = target: T5, Intestinal-type alkaline phosphatase; test: mouse intestinal alkaline phosphatase activators, dose response, biochemical, luminescence, uHTS hits (AID 488783); type: functional
[26] = target: Cyclin-dependent kinase 5/CDK5 activator 1 (Homo sapiens, UniProt Q00535); test: blockade of human CDK5 activity – biochemical, cherry-picked samples, set 2, dose response (AID 504545)
Major prion protein = Major prion protein (Homo sapiens, UniProt P04156); type: functional, cell-based

Cc1ccc(-c2csc(N3CCN(c4cc5c(cc4Cl)nc(-c4ccncc4)n5CCOCCO)CC3)n2)cc1
active: AC50 (CAAX prenyl protease 2) 6.2 µM | AC50 [1] 231 µM

CC(=O)c1ccc(-c2ccc(/C=C(/Sc3n[nH]c(C)n3)C(=O)O)o2)cc1
active: IC50 (SUMO-activating enzyme [2]) 4.2 µM | EC50 [3] 14.9 µM | EC50 [4] 21.6 µM | IC50 (SUMO-activating enzyme [5]) 74.2 µM

Clc1ccc(N2N=C(c3cccs3)CC2c2ccco2)cc1 (configuration not stated)
active: EC50 [6] 5.98 µM | EC50 [7] 2.71 µM | EC50 [8] 9.2 µM

O=C(Nc1ccc(N2CCOCC2)cc1)Nc1ccc2nc(-c3ccco3)c(-c3ccco3)nc2c1
active: IC50 [9] 3.55 µM | IC50 [10] 1.91 µM | IC50 [11] 0.894 µM

COc1cc(NC(=O)c2ccc([N+](=O)[O-])o2)ccc1NC(=O)c1ccco1
active: AC50 (Paired box protein Pax-8) 3.75 µM
inactive: IC50 (Exodeoxyribonuclease V) > 119 µM | IC50 [12] > 119 µM

CCOc1ccc(CSC(CC(=O)O)C(=O)O)cc1 (configuration not stated)
inconclusive: AC50 (Cytochrome P450 2C19) 14.1 µM | AC50 (Cytochrome P450 3A4) | AC50 (Cytochrome P450 2C9) 15.8 µM

COc1ccc(Cn2c(SCC(=O)Nc3ccc(C)c(C)c3)nc3ccsc3c2=O)cc1
inactive: IC50 [13] > 32 µM

O=C(CCCCC(=O)NNC(=O)COc1ccccc1)NNC(=O)COc1ccccc1
active: EC50 [15] 10 µM | EC50 [16] 8.19 µM | EC50 [17] 9.87 µM
inactive: EC50 [14] > 100 µM

Oc1cc2c(cc1O)C1c3ccc(O)c(O)c3OCC1(O)C2 (configuration not stated) [HAEMATOXYLIN]
active: EC50 [18] 85.7 µM | IC50 (Fibrinogen beta chain [19]) 9.33 µM | EC50 [20] 50 µM | IC50 (Genome polyprotein) 17.4 µM | IC50 [11] 3.44 µM | IC50 (Large T antigen) 4.66 µM | EC50 [25] 62.1 µM | AC50 [26] 17.5 µM
inactive: EC50 [21] 72.8 µM | EC50 [22] 30.1 µM | IC50 (Fibrinogen beta chain [23]) > 83.3 µM | IC50 [24] 66.5 µM | IC50 (cells) > 138 µM | IC50 (Major prion protein) 14 µM
